Source: PMC7587356, “High-Throughput Screening for Inhibitors of the SARS-CoV-2 Protease Using a FRET-Biosensor” (Molecules, 2020)
Counter-ions that a name gives are not always drawn. Like-named read-outs stand apart in the source and are kept apart here.

Target: SARS-CoV-2 3CLpro (Severe acute respiratory syndrome coronavirus 2, UniProt P0DTD1)
Assay: biochemical
Assay type: biochemical
Parameters: Replicate_1 / Replicate_2 / mean / mean (LOPAC_screen_w_protease): unit not given here
Conditions: for inhibition at 5 µM: 4 h
[1] = sheet LOPAC_screen_w_protease, primary screen with protease, compound at 5 µM, mean of two replicates
[2] = sheet LOPAC_screen_w_protease, primary screen with protease, compound at 5 µM, replicate 1
[3] = sheet LOPAC_screen_w_protease, primary screen with protease, compound at 5 µM, replicate 2
[4] = sheet LOPAC_screen_w_protease, LOPAC1280 primary screen with protease, 5 µM compound, mean of the two replicates
[5] = sheet LOPAC_screen_w_protease, LOPAC1280 primary screen with protease, 5 µM compound, replicate 2
[6] = sheet LOPAC_screen_w_protease, LOPAC1280 primary screen with protease, 5 µM compound, mean of the two replicates, read-out: mean
[7] = sheet LOPAC_screen_w_protease, LOPAC1280 primary screen with protease, 5 µM compound, replicate 1, read-out: Replicate_1
[8] = sheet LOPAC_screen_w_protease, LOPAC1280 primary screen with protease, 5 µM compound, replicate 2, read-out: Replicate_2
[9] = sheet LOPAC_screen_w_protease, LOPAC1280 primary screen at 5 µM, with protease, mean of the two replicates
[10] = sheet LOPAC_screen_w_protease, LOPAC1280 primary screen at 5 µM, with protease, replicate 1
[11] = sheet LOPAC_screen_w_protease, LOPAC1280 primary screen at 5 µM, with protease, replicate 2
[12] = sheet LOPAC_screen_w_protease, primary screen with protease, 5 µM, mean of two replicates
[13] = sheet LOPAC_screen_w_protease, primary screen with protease, 5 µM, replicate 1
[14] = sheet LOPAC_screen_w_protease, primary screen with protease, 5 µM, replicate 2
[15] = sheet LOPAC_screen_w_protease, LOPAC1280 primary screen at 5 µM, with protease, mean of two replicates
[16] = sheet LOPAC_screen_w_protease, primary screen at 5 µM, mean of two replicates, read-out: mean (LOPAC screen with protease)
[17] = sheet LOPAC_screen_w_protease, primary screen at 5 µM, replicate 1, read-out: Replicate_1 (LOPAC screen with protease)
[18] = sheet LOPAC_screen_w_protease, primary screen at 5 µM, replicate 2, read-out: Replicate_2 (LOPAC screen with protease)
[19] = sheet LOPAC_screen_w_protease, primary screen with protease, mean of two replicates
[20] = sheet LOPAC_screen_w_protease, primary screen with protease, replicate 1
[21] = sheet LOPAC_screen_w_protease, primary screen with protease, replicate 2
[22] = sheet LOPAC_screen_w_protease, primary screen at 5 µM, mean of two replicates
[23] = sheet LOPAC_screen_w_protease, primary screen at 5 µM, replicate 1
[24] = sheet LOPAC_screen_w_protease, primary screen at 5 µM, replicate 2

Compound: Oc1ccc2c3c1O[C@H]1c4[nH]c5ccccc5c4C[C@@]4(O)[C@@H](C2)N(CC2CC2)CC[C@]314 [Naltrindole hydrochloride]
- inhibition at 5 µM (read-out: Replicate_1): 3.59%
- inhibition at 5 µM (read-out: Replicate_2): 2.54%
- inhibition at 5 µM (read-out: mean): 3.06%

Compound: NC(CP(=O)(O)O)C(=O)O (racemic) [(±)-2-Amino-3-phosphonopropionic acid]
- mean [1]: 3.099
- Replicate_1 [2]: 4.251
- Replicate_2 [3]: 1.946

Compound: Nc1nc2c(nc(Br)n2[C@@H]2O[C@@H]3COP(=O)([O-])O[C@H]3[C@H]2O)c(=O)[nH]1.[Na+] [8-Bromo-cGMP sodium]
- mean [1]: 2.652
- Replicate_1 [2]: 4.1
- Replicate_2 [3]: 1.204

Compound: CCCCCCCC/C=C\CCCCCCCC(=O)NCCc1ccc(O)c(O)c1 [N-Oleoyldopamine]
- mean (LOPAC_screen_w_protease) (LOPAC1280 primary screen with protease, 5 µM compound, mean of the two replicates): 2.025
- Replicate_1 (LOPAC_screen_w_protease) (LOPAC1280 primary screen with protease, 5 µM compound, replicate 1): 0.1379
- Replicate_2 (LOPAC_screen_w_protease) (LOPAC1280 primary screen with protease, 5 µM compound, replicate 2): 3.912

Compound: CC(=O)NCCc1c[nH]c2ccccc12 [N-Acetyltryptamine]
- inhibition at 5 µM (sheet LOPAC_screen_w_protease, LOPAC1280 primary screen at 5 µM, with protease, mean of the two replicates, read-out: mean): 0.808%
- inhibition at 5 µM (sheet LOPAC_screen_w_protease, LOPAC1280 primary screen at 5 µM, with protease, replicate 1, read-out: Replicate_1): 1.07%
- inhibition at 5 µM (sheet LOPAC_screen_w_protease, LOPAC1280 primary screen at 5 µM, with protease, replicate 2, read-out: Replicate_2): 0.543%

Compound: Cc1[nH]c2ccc(O)cc2c1CCN.O=C(O)/C=C\C(=O)O [2-Methyl-5-hydroxytryptamine maleate]
- mean [4]: 5.124
- Replicate_1 (sheet LOPAC_screen_w_protease, LOPAC1280 primary screen with protease, 5 µM compound, replicate 1): 4.629
- Replicate_2 [5]: 5.62

Compound: CC1(C)CCC(NC(=O)[C@@H](N)CCC(=O)O)CC1 [CR 2249]
- inhibition at 5 µM [6]: 5.2%
- inhibition at 5 µM [7]: 4.44%
- inhibition at 5 µM [8]: 5.96%

Compound: Cc1cn[nH]c1.Cl [4-Methylpyrazole hydrochloride]
- mean [4]: 4.54
- Replicate_2 [5]: 6.559

Compound: CCn1cnc2c(Nc3cccc(Cl)c3)nc(N[C@@H]3CCCC[C@@H]3N)nc21.Cl [CGP-74514A hydrochloride]
- mean [9]: 0.7839
- Replicate_1 [10]: 2.043
- Replicate_2 [11]: -0.4753

Compound: Cc1cc(C(C)(C)C)c(O)c(C)c1CC1=NCCN1 [Oxymetazoline hydrochloride]
- inhibition at 5 µM [6]: 5.36%
- inhibition at 5 µM [7]: 4.63%
- inhibition at 5 µM [8]: 6.09%

Compound: C[N+]1(C)CCOC(O)(c2ccc(-c3ccc(C4(O)C[N+](C)(C)CCO4)cc3)cc2)C1 (centres unmarked) [Hemicholinium-3]
- inhibition at 5 µM (sheet LOPAC_screen_w_protease, primary screen with protease, compound at 5 µM, mean of two replicates, read-out: mean): 2.72%
- inhibition at 5 µM (sheet LOPAC_screen_w_protease, primary screen with protease, compound at 5 µM, replicate 1, read-out: Replicate_1): 4.37%
- inhibition at 5 µM (sheet LOPAC_screen_w_protease, primary screen with protease, compound at 5 µM, replicate 2, read-out: Replicate_2): 1.08%

Compound: CS(=O)(=O)O.Cc1c(C(=O)c2cccc3ccccc23)c2cccc3c2n1[C@H](CN1CCOCC1)CO3 [(R)-(+)-WIN 55,212-2 mesylate]
- mean [12]: -0.1611
- Replicate_1 [13]: -0.3938
- Replicate_2 [14]: 0.07161

Compound: CC(C)NCC(O)COc1ccc(CCOCC2CC2)cc1 (centres unmarked) [Betaxolol hydrochloride]
- inhibition at 5 µM (read-out: Replicate_1): 0.905%
- inhibition at 5 µM (read-out: Replicate_2): 3.87%
- inhibition at 5 µM (read-out: mean): 2.39%

Compound: C[C@]12CCC(=O)C=C1CC[C@@H]1[C@@H]2[C@@H](O)C[C@@]2(C)[C@H]1CC[C@]2(O)C(=O)CO [Hydrocortisone]
- inhibition at 5 µM (sheet LOPAC_screen_w_protease, LOPAC1280 at 5 µM, mean of two replicates, read-out: mean): 1.15%
- inhibition at 5 µM (sheet LOPAC_screen_w_protease, LOPAC1280 at 5 µM, replicate 1, read-out: Replicate_1): 2.23%
- inhibition at 5 µM (sheet LOPAC_screen_w_protease, LOPAC1280 at 5 µM, replicate 2, read-out: Replicate_2): 0.0692%

Compound: CC#CCOC(=O)c1c(C)nc2sc3c(c2c1N)CCC(O)C3 (centres unmarked) [SB 205384]
- mean [15]: -1.612
- Replicate_1 [10]: 2.126
- Replicate_2 [11]: -5.349

Compound: CCOC(=O)c1cnc2c(cnn2CC)c1NN=C(C)C [Etazolate hydrochloride]
- inhibition at 5 µM [16]: 6.78%
- inhibition at 5 µM [17]: 5.91%
- inhibition at 5 µM [18]: 7.65%

Compound: Cn1cc(C2=C(c3ccc(Cl)cc3Cl)C(=O)NC2=O)c2ccccc21 [SB 216763]
- inhibition at 5 µM [16]: 6.45%
- inhibition at 5 µM [17]: 5.91%
- inhibition at 5 µM [18]: 6.98%

Compound: NC(=O)OCC(COC(N)=O)c1ccccc1 [Felbamate]
- inhibition at 5 µM (sheet LOPAC_screen_w_protease, primary screen with protease, mean of two replicates, read-out: mean): 2.23%
- inhibition at 5 µM (sheet LOPAC_screen_w_protease, primary screen with protease, replicate 1, read-out: Replicate_1): 3.62%
- inhibition at 5 µM (sheet LOPAC_screen_w_protease, primary screen with protease, replicate 2, read-out: Replicate_2): 0.843%

Compound: CC(C)C(=O)c1c(C(C)C)nn2ccccc12 [Ibudilast]
- inhibition at 5 µM (LOPAC1280 primary screen with protease, 5 µM compound, replicate 1, read-out: Replicate_1 (LOPAC_screen_w_protease)): 1.64%
- inhibition at 5 µM (LOPAC1280 primary screen with protease, 5 µM compound, replicate 2, read-out: Replicate_2 (LOPAC_screen_w_protease)): 1.76%
- mean (LOPAC_screen_w_protease) (LOPAC1280 primary screen with protease, 5 µM compound, mean of two replicates): 1.697

Compound: O=C(O)/C(=C/c1c(C(=O)O)[nH]c2cc(Cl)cc(Cl)c12)c1ccccc1 [MDL 105,519]
- Replicate_1: 2.708
- Replicate_2: 5.657
- mean: 4.183

Compound: O=c1onc2n1-c1cc(Br)ccc1OC2 [NS 2028]
- Replicate_1: 5.339
- Replicate_2: 3.612
- mean: 4.476

Compound: Cl.N=C(N)NN [Aminoguanidine hydrochloride]
- mean [19]: 2.381
- Replicate_1 [20]: 2.212
- Replicate_2 [21]: 2.55

Compound: COc1ccccc1N1CCN(CCN(C(=O)c2ccc(F)cc2)c2ccccn2)CC1.Cl.Cl [p-MPPF dihydrochloride]
- mean (LOPAC screen with protease) [22]: 7.242
- Replicate_1 (LOPAC screen with protease) [23]: 5.881
- Replicate_2 (LOPAC screen with protease) [24]: 8.603

Compound: COc1[nH]c2ccc(F)cc2c1C(=O)OCC1CCN(CCNS(C)(=O)=O)CC1.NS(=O)(=O)O [GR 125487 sulfamate salt]
- mean [9]: 0.6171
- Replicate_1 [10]: 2.002
- Replicate_2 [11]: -0.7681

Compound: NC/C=C\C(=O)O [cis-4-Aminocrotonic acid]
- mean [19]: 2.546
- Replicate_1 [20]: 3.312
- Replicate_2 [21]: 1.781

Compound: NS(=O)(=O)c1cccc2c1c([N+](=O)[O-])cc1nc([O-])c([O-])nc12.[Na+].[Na+] [NBQX disodium]
- mean (LOPAC screen with protease) [22]: 8.586
- Replicate_1 (LOPAC screen with protease) [23]: 5.7201
- Replicate_2 (LOPAC screen with protease) [24]: 11.4514

Compound: N=C(NCCC[C@H](N)C(=O)O)N[N+](=O)[O-] [NG-Nitro-L-arginine]
- inhibition at 5 µM (sheet LOPAC_screen_w_protease, primary screen of LOPAC1280 at 5 µM with protease, mean of the two replicates, read-out: mean): 3.68%
- inhibition at 5 µM (sheet LOPAC_screen_w_protease, primary screen of LOPAC1280 at 5 µM with protease, replicate 1, read-out: Replicate_1): 2.33%
- inhibition at 5 µM (sheet LOPAC_screen_w_protease, primary screen of LOPAC1280 at 5 µM with protease, replicate 2, read-out: Replicate_2): 5.04%

Compound: Nc1ncnc2c1ncn2C1CCCO1 (centres unmarked) [SQ 22536]
- mean [15]: -1.0181
- Replicate_1 [10]: 0.976
- Replicate_2 [11]: -3.012

Compound: O=c1[nH]c2ccccc2c2ccccc12 [6(5H)-Phenanthridinone]
- mean [19]: 2.579
- Replicate_1 [20]: 3.064
- Replicate_2 [21]: 2.0946

Compound: CC(C)[C@@]1(NC(=O)[C@@H]2C=C3c4cccc5[nH]cc(c45)C[C@H]3N(C)C2)O[C@@]2(O)[C@@H]3CCCN3C(=O)[C@H](Cc3ccccc3)N2C1=O [Ergocristine]
- inhibition at 5 µM (read-out: Replicate_1): 4.04%
- inhibition at 5 µM (read-out: Replicate_2): 2.86%
- inhibition at 5 µM (read-out: mean): 3.45%

Compound: O=C(O)Cc1ccccc1Nc1c(Cl)cccc1Cl [Diclofenac sodium]
- mean (LOPAC_screen_w_protease): 1.426
- inhibition at 5 µM (read-out: Replicate_1 (LOPAC_screen_w_protease)): 3.59%
- inhibition at 5 µM (read-out: Replicate_2 (LOPAC_screen_w_protease)): -0.743%

Compound: O=C(O)Cc1c[nH]c2ccc(O)cc12 [5-Hydroxyindolacetic acid]
- mean [12]: -0.3702
- Replicate_1 [13]: 1.641
- Replicate_2 [14]: -2.381

Compound: CN1CCN(C2=Nc3ccccc3Oc3ccc(Cl)cc32)CC1 [Loxapine succinate]
- inhibition at 5 µM (sheet LOPAC_screen_w_protease, primary screen with protease, 5 µM, mean of two replicates, read-out: mean): -0.686%
- inhibition at 5 µM (sheet LOPAC_screen_w_protease, primary screen with protease, 5 µM, replicate 1, read-out: Replicate_1): -0.577%
- inhibition at 5 µM (sheet LOPAC_screen_w_protease, primary screen with protease, 5 µM, replicate 2, read-out: Replicate_2): -0.795%
